Data published in US9770026B2, “Substituted pyrimidine compound and uses thereof” (Shenyang Sinochem Agrochemicals R&D Co., Ltd., priority 2012, dated 2017).

What was measured:
cucumber downy mildew = experiment: protectant activity in vivo against cucumber downy mildew; conditions: Cucumis sativus, 168 h; for pest or weed control at 6.25 µg/mL: read-out: control effect against cucumber downy mildew (%), 6.25 mg/L; for pest or weed control at 12.5 µg/mL: read-out: control effect against cucumber downy mildew (%), 12.5 mg/L; for pest or weed control at 25 µg/mL: read-out: control effect against cucumber downy mildew (%), 25 mg/L; for pest or weed control at 50 µg/mL: read-out: control effect against cucumber downy mildew (%), 50 mg/L; for pest or weed control at 100 µg/mL: read-out: control effect against cucumber downy mildew (%), 100 mg/L; for pest or weed control at 400 µg/mL: read-out: control effect against cucumber downy mildew (%), 400 mg/L; for pest or weed control at 100 ppm: read-out: protectant activity against cucumber downy mildew in vivo, 100 ppm; for pest or weed control at 400 ppm: read-out: protectant activity against cucumber downy mildew in vivo, 400 ppm
rice blast = experiment: microbe, parasite or virus in culture; assay type: cell-based; conditions: Pyricularia oryzae; for inhibition at 25 ppm: read-out: inhibition rate against rice blast, 25 ppm, in vitro; for inhibition at 8.3 ppm: read-out: inhibition rate against rice blast, 8.3 ppm, in vitro
cucumber gray mold = experiment: fungicidal activity in vitro (inhibition rate) against cucumber gray mold; assay type: cell-based; conditions: 25 ppm, in vitro; read-out: inhibition rate against cucumber gray mold
wheat powdery mildew = experiment: protectant activity in vivo against wheat powdery mildew; conditions: Triticum aestivum, 168 h; for pest or weed control at 6.25 µg/mL: read-out: control effect against wheat powdery mildew (%), 6.25 mg/L; for pest or weed control at 25 µg/mL: read-out: control effect against wheat powdery mildew (%), 25 mg/L; for pest or weed control at 100 µg/mL: read-out: control effect against wheat powdery mildew (%), 100 mg/L; for pest or weed control at 400 µg/mL: read-out: control effect against wheat powdery mildew (%), 400 mg/L; for pest or weed control at 400 ppm: read-out: protectant activity against wheat powdery mildew in vivo, 400 ppm
armyworm = experiment: bioactivity test against armyworm, airbrush spray; assay type: in vivo; conditions: 72 h; for pest or weed control at 600 µg/mL: 600 mg/L
corn rust = experiment: protectant activity in vivo against corn rust; conditions: Zea mays, 168 h; for pest or weed control at 6.25 µg/mL: read-out: control effect against corn rust (%), 6.25 mg/L; for pest or weed control at 6.25 µg/mL / pest or weed control at 25 µg/mL / pest or weed control at 100 µg/mL / pest or weed control at 400 µg/mL: protectant activity; for pest or weed control at 25 µg/mL: read-out: control effect against corn rust (%), 25 mg/L; for pest or weed control at 100 µg/mL: read-out: control effect against corn rust (%), 100 mg/L; for pest or weed control at 400 µg/mL: read-out: control effect against corn rust (%), 400 mg/L; for pest or weed control at 6.25 ppm: read-out: protectant activity against corn rust in vivo, 6.25 ppm; for pest or weed control at 25 ppm: read-out: protectant activity against corn rust in vivo, 25 ppm; for pest or weed control at 100 ppm: read-out: protectant activity against corn rust in vivo, 100 ppm; for pest or weed control at 400 ppm: read-out: protectant activity against corn rust in vivo, 400 ppm
Diamond back moth = experiment: insecticidal activity against diamond back moth, airbrush spray; assay type: in vivo; conditions: 72 h; for pest or weed control at 600 µg/mL: 600 mg/L
Summary of the method: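 Airbrush leaf-disc spray test: both faces of 2 cm cabbage discs received 0.5 ml of test solution at 0.7 kg/cm^2. Solutions were made in acetone:methanol (1:1) and brought to concentration with 0.1% Tween 80 in water. Ten second-instar larvae per disc, triplicates, were held at 25° C and 60˜70% R.H., with mortality recorded at 72 hrs.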

[1] = system: Green peach aphids (Myzus Persicae Sulzer); experiment: bioactivity test against green peach aphid, airbrush foliar spray; assay type: in vivo; conditions: Myzus persicae, foliar, 48 h; for pest or weed control at 10 µg/mL: 10 mg/L; for pest or weed control at 100 µg/mL: 100 mg/L; for pest or weed control at 600 µg/mL: 600 mg/L
Summary of the method: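 Death rate was scored at 48 hrs, held at 25±1 C and 60±5% RH, following airbrush foliar spray (0.5 mL, 10 psi) onto cabbage leaf discs bearing about 15-30 aphids. Test solutions: compound dissolved in 1:1 acetone:methanol, brought to concentration with 0.1% tween 80 water.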

carmine spider mite = experiment: bioactivity test against carmine spider mite, airbrush spray; assay type: in vivo; conditions: Tetranychus cinnabarinus, 72 h
Summary of the method: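 Broadbean seedlings infested with adult mites were sprayed with compound (acetone/methanol stock diluted in 0.1% Tween 80 water) by airbrush at 0.7 kg/cm^2, 0.5 ml. Three replicates were run. Mortality was scored after 72 hrs.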

[2] = read-out: Insecticidal activity against armyworm (%)
[3] = contrastive test, read-out: Insecticidal activity against peach aphid (%)

Compound	inhibition at 25 ppm (rice blast)	inhibition at 25 ppm (cucumber gray mold)	pest or weed control at 6.25 µg/mL (wheat powdery mildew; protectant activity)	pest or weed control at 25 µg/mL (wheat powdery mildew; protectant activity)	pest or weed control at 100 µg/mL (wheat powdery mildew; protectant activity)	pest or weed control at 400 µg/mL (wheat powdery mildew; protectant activity)	inhibition at 8.3 ppm (rice blast)	pest or weed control at 600 µg/mL (armyworm; [2])	pest or weed control at 6.25 µg/mL (corn rust)	pest or weed control at 25 µg/mL (corn rust)	pest or weed control at 100 µg/mL (corn rust)	pest or weed control at 400 µg/mL (corn rust)	pest or weed control at 10 µg/mL [1, 3]	pest or weed control at 100 µg/mL [1, 3]	pest or weed control at 600 µg/mL [1, 3]	pest or weed control at 400 ppm (wheat powdery mildew)	pest or weed control at 25 ppm (corn rust)	pest or weed control at 100 ppm (corn rust)	pest or weed control at 400 ppm (corn rust)	pest or weed control at 600 ppm ([1]; death rate after 48 hrs)	further results
CC(F)c1ncnc(NCCc2ccc(Oc3ccc(C(F)(F)F)cc3)cc2)c1Cl (stereo not drawn) [CK1, reference compound]	0%	0%	80%	100%	100%	100%	–	–	–	–	–	–	–	–	–	–	–	–	–	–	pest or weed control at 3.125 µg/mL (cucumber downy mildew; read-out: control effect against cucumber downy mildew (%), 3.125 mg/L, protectant activity): 20%; pest or weed control at 6.25 µg/mL (cucumber downy mildew; protectant activity): 30%; pest or weed control at 12.5 µg/mL (cucumber downy mildew; protectant activity): 50%; pest or weed control at 25 µg/mL (cucumber downy mildew; protectant activity): 100%; pest or weed control at 50 µg/mL (cucumber downy mildew; protectant activity): 100%; pest or weed control at 100 µg/mL (cucumber downy mildew; protectant activity): 100%; pest or weed control at 400 µg/mL (cucumber downy mildew; protectant activity): 100%
CCc1ncnc(NC(C)c2ccc(Oc3ccc(C(F)(F)F)cc3)cc2)c1Cl (stereo not drawn) [CK47, reference compound]	< 50%	0%	–	–	–	–	0%	86%	0%	0%	30%	80%	–	–	–	–	–	–	–	–	pest or weed control at 10 µg/mL (armyworm; 10 mg/L, read-out: Insecticidal activity against armyworm (%)): 0%; pest or weed control at 100 µg/mL (armyworm; 100 mg/L, read-out: Insecticidal activity against armyworm (%)): 25%
CCc1ncnc(NCc2ccc(Oc3ccc(C(F)(F)F)cc3Cl)cc2)c1Cl [CK48, reference compound]	< 50%	0%	0%	0%	0%	30%	0%	50%	0%	0%	20%	60%	0%	87%	100%	–	–	–	–	–	pest or weed control at 600 µg/mL (Diamond back moth): 40%
Cc1ncnc(NCc2ccc(Oc3ccc(C(F)(F)F)cc3Cl)cc2)c1Cl [CK51, reference compound]	–	0%	0%	40%	80%	100%	0%	43%	0%	0%	20%	80%	0%	50%	100%	–	–	–	–	–	pest or weed control at 600 µg/mL (Diamond back moth): 57%
FC(F)c1ncnc(NCCc2ccc(Oc3ccc(C(F)(F)F)cn3)cc2)c1Cl [Compound I-2342]	80 to 99%	100%	100%	100%	100%	100%	–	–	–	–	–	–	–	–	–	100%	100%	100%	100%	100%	pest or weed control at 0.4 µg/mL (wheat powdery mildew; read-out: control effect against wheat powdery mildew (%), 0.4 mg/L, protectant activity): 60%; pest or weed control at 1.6 µg/mL (wheat powdery mildew; read-out: control effect against wheat powdery mildew (%), 1.6 mg/L, protectant activity): 95%; pest or weed control at 6.25 ppm (wheat powdery mildew; read-out: protectant activity against wheat powdery mildew in vivo, 6.25 ppm): 100%; pest or weed control at 25 ppm (wheat powdery mildew; read-out: protectant activity against wheat powdery mildew in vivo, 25 ppm): 100%; pest or weed control at 100 ppm (wheat powdery mildew; read-out: protectant activity against wheat powdery mildew in vivo, 100 ppm): 100%; pest or weed control at 100 ppm (carmine spider mite; mortality after 72 hrs): 100%; pest or weed control at 600 ppm (carmine spider mite; mortality after 72 hrs): 100%; pest or weed control at 600 ppm (armyworm; mortality after 72 h): 100%; pest or weed control at 6.25 ppm (corn rust): 100%; pest or weed control at 10 ppm ([1]; death rate after 48 hrs): 100%; pest or weed control at 100 ppm ([1]; death rate after 48 hrs): 100%
Cc1ncnc(NCCc2ccc(Oc3ccc(C(F)(F)F)cc3)cc2)c1Cl [II-69]	80 to 99%	80 to 99%	–	–	–	–	–	–	–	–	–	–	100%	100%	100%	100%	100%	100%	100%	100%	pest or weed control at 100 ppm (cucumber downy mildew): 80 to 99%; pest or weed control at 400 ppm (cucumber downy mildew): 100%; pest or weed control at 10 µg/mL (carmine spider mite; 10 mg/L, contrastive test, read-out: Insecticidal activity against carmine spider mite (% )): 90%; pest or weed control at 100 µg/mL (carmine spider mite; 100 mg/L, contrastive test, read-out: Insecticidal activity against carmine spider mite (% )): 100%; pest or weed control at 600 µg/mL (carmine spider mite; 600 mg/L, contrastive test, read-out: Insecticidal activity against carmine spider mite (% )): 100%; pest or weed control at 10 ppm (carmine spider mite; 10 ppm, mortality after 72 hrs): 80 to 99%; pest or weed control at 100 ppm (carmine spider mite; mortality after 72 hrs): 100%; pest or weed control at 600 ppm (carmine spider mite; mortality after 72 hrs): 100%; pest or weed control at 100 ppm (armyworm; 100 ppm, mortality after 72 h): 80 to 99%; pest or weed control at 600 ppm (armyworm; mortality after 72 h): 100%; pest or weed control at 2.5 µg/mL ([1]; 2.5 mg/L, contrastive test, read-out: Insecticidal activity against peach aphid (%)): 81%; pest or weed control at 5 µg/mL ([1]; 5 mg/L, contrastive test, read-out: Insecticidal activity against peach aphid (%)): 100%; pest or weed control at 2.5 ppm ([1]; 2.5 ppm, death rate after 48 hrs): 80 to 99%; pest or weed control at 5 ppm ([1]; 5 ppm, death rate after 48 hrs): 100%; pest or weed control at 10 ppm ([1]; death rate after 48 hrs): 100%; pest or weed control at 100 ppm ([1]; death rate after 48 hrs): 100%
FC(F)c1ncnc(NCCc2ccc(Oc3ccc(Cl)cc3Cl)nc2)c1Cl [III-622]	80 to 99%	80 to 99%	–	–	–	–	–	–	–	–	–	–	–	–	–	100%	100%	100%	100%	100%	pest or weed control at 6.25 µg/mL (cucumber downy mildew; protectant activity): 98%; pest or weed control at 12.5 µg/mL (cucumber downy mildew; protectant activity): 100%; pest or weed control at 25 µg/mL (cucumber downy mildew; protectant activity): 100%; pest or weed control at 50 µg/mL (cucumber downy mildew; protectant activity): 100%; pest or weed control at 100 µg/mL (cucumber downy mildew; protectant activity): 100%; pest or weed control at 400 µg/mL (cucumber downy mildew; protectant activity): 100%; pest or weed control at 6.25 ppm (cucumber downy mildew; read-out: protectant activity against cucumber downy mildew in vivo, 6.25 ppm): 80 to 99%; pest or weed control at 12.5 ppm (cucumber downy mildew; read-out: protectant activity against cucumber downy mildew in vivo, 12.5 ppm): 100%; pest or weed control at 25 ppm (cucumber downy mildew; read-out: protectant activity against cucumber downy mildew in vivo, 25 ppm): 100%; pest or weed control at 50 ppm (cucumber downy mildew; read-out: protectant activity against cucumber downy mildew in vivo, 50 ppm): 100%; pest or weed control at 100 ppm (cucumber downy mildew): 100%; pest or weed control at 400 ppm (cucumber downy mildew): 100%; pest or weed control at 600 ppm (Diamond back moth; 600 ppm, mortality after 72 hrs, read-out: control (test results against diamond back moth)): 100%; pest or weed control at 6.25 ppm (corn rust): 80 to 99%
